For one compound, AUC and Cmax results are on record in US7247644B2, “Ester derivatives of a decahydroisoquinoline-3-carboxylic acid as analgestics” (Eli Lilly and Company, priority 2003, dated 2007).

Molecules are shown by their SMILES.

By AUC is commonly meant the area under the concentration-time curve, a measure of exposure. The term Cmax denotes the highest concentration seen after dosing.

Type in all cases: in vivo
The nature of series [1]: Bioavailability in Dogs: plasma concentrations of parent acid by LC/MS/MS. Particulars: both sexes, dog, iv; Compound A in plasma, Beagle dogs, 1 mg/kg. How it is done:
(§1) Percent bioavailability is determined using the following equation:
(§2) [formula] wherein AUC represents the area under the curve, p.o. represents oral dose, and i.v. represents intravenous dose. Bioavailability in Dogs:
Beagle dogs (2 male and 1 female) are administered an oral dose, and later an iv dose of (3S,4aR,6R,8aR)-6-[2-(1(2)H-tetrazole-5-yl)ethyl-1,2,3,4,4a,5,6,7,8,8a-decahydroisoquinoline-3-carboxylic acid (10 mg/Kg p.o; 1 mg/Kg i.v.) to determine oral bioavailability. Subsequently, the same three dogs are administered an oral 10 mg/kg dose of an ester prodrug (for example (3S,4aR,6R,8aR)-6-[2-(1(2)H-tetrazole-5-yl)ethyl-1,2,3,4,4a,5,6,7,8,8a-decahydroisoquinoline-3-carboxylic acid ethyl ester, HCL salt) to determine whether the prodrug would increase bioavailability of the parent acid. The plasma concentrations of (3S,4aR,6R,8aR)-6-[2-(1(2)H-tetrazole-5-yl)ethyl-1,2,3,4,4a,5,6,7,8,8a-decahydroisoquinoline-3-carboxylic acid are determined by LC/MS/MS.
Live Phase: (3S,4aR,6R,8aR)-6-[2-(1(2)H-tetrazole-5-yl)ethyl-1,2,3,4,4a,5,6,7,8,8a-decahydroisoquinoline-3-carboxylic acid (HCl salt) is dissolved in dilute sodium hydroxide for oral administration (30 mg/ml) and in 10% ethanol/water for iv administration (10 mg/ml). […]

The nature of series [2]: Bioavailability in Rats: plasma concentrations of parent acid by LC/MS/MS. As to conditions: male, rat, iv; Compound A in plasma, Fischer rats, 10 mg/kg. The procedure: as §1, §2
Male Fischer Rats are administered either an oral or iv dose of (3S,[…])-6-[2-(1(2)H-tetrazole-5-yl)ethyl-1,2,3,4,4a,5,6,7,8,8a-decahydroisoquinoline-3-carboxylic acid (10 mg/Kg) to determine oral bioavailability. A separate group of rats are administered an oral 10 mg/kg dose of an ester prodrug (for example (3S,4aR,6R,8aR)-6-[2-(1(2)H-tetrazole-5-yl)ethyl-1,2,3,4,4a,5,6,7,8,8a-decahydroisoquinoline-3-carboxylic acid ethyl ester, HCL salt) to determine whether the prodrug would increase bioavailability of the parent acid. The plasma concentrations of (3S,4aR,6R,8aR)-6-[2-(1(2)H-tetrazole-5-yl)ethyl-1,2,3,4,4a,5,6,7,8,8a-decahydroisoquinoline-3-carboxylic acid are determined by LC/MS/MS.

A short description of series [3]: Bioavailability in Cynomolgus Monkeys: plasma concentrations of parent acid by LC/MS/MS. Particulars: both sexes, cynomolgus monkey, iv, 0.3 mg/kg, Compound A in plasma, .3 mg/kg. The procedure:
as §1, §2
Two male and two female monkeys are administered an oral, and later, an iv dose of (3S,4aR,6R,8aR)-6-[2-(1(2)H-tetrazole-5-yl)ethyl-1,2,3,4,4a,5,6,7,8,8a-decahydroisoquinoline-3-carboxylic acid (oral: 3 mg/kg; iv: 0.3 mg/kg) to determine oral bioavailability. The same animals are also subsequently administered an oral 3 mg/kg dose of (3S,4aR,6R,8aR)-6-[2-(1(2)H-tetrazole-5-yl)ethyl-1,2,3,4,4a,5,6,7,8,8a-decahydroisoquinoline-3-carboxylic acid ethyl ester to determine if the ester prodrug form increases bioavailability of the parent acid. The plasma concentrations of the parent acid are determined by LC/MS/MS.
Four cynomolgus monkeys (2/sex) are given a single oral dose of (3S,4aR,6R,8aR)-6-[2-(1(2)H-tetrazole-5-yl)ethyl-1,2,3,4,4a,5,6,7,8,8a-decahydroisoquinoline-3-carboxylic acid (3 mg/kg) on day 0, a single iv dose of (3S,4aR,6R,8aR)-6-[2-(1(2)H-tetrazole-5-yl)ethyl-1,2,3,4,4a,5,6,7,8,8a-decahydroisoquinoline-3-carboxylic acid (0.3 mg/kg) on day 4 and a single oral dose of (3S,4aR,6R,8aR)-6-[2-(1(2)H-tetrazole-5-yl)ethyl-1,2,3,4,4a,5,6,7,8,8a-decahydroisoquinoline-3-carboxylic acid ethyl ester (3 mg/kg) on day 8. […]

With `O=C(O)[C@@H]1C[C@H]2C[C@@H](CCc3nn[nH]n3)CC[C@H]2CN1` [Compound A], the AUC in series [1] stood at 4220 ng·h/mL; in series [2], 6730 ng·h/mL; in series [3], 1080 ng·h/mL. For the same compound, the Cmax in series [1] worked out at 2820 ng/mL; in series [2] it was 11000 ng/mL; in series [3], 1620 ng/mL.
